Data: ChEMBL document CHEMBL3352684, “Discovery of MK-3697: a selective orexin 2 receptor antagonist (2-SORA) for the treatment of insomnia” (Bioorg Med Chem Lett, 2014)
Calls of active or inactive are those of the source. The calls are words filed in the database; no cut-off is given here.

Legend:
[1] = Tmax in Sprague-Dawley rat at 15 mg/kg, po; format: ADME, organism-based; parameters: dose 15 mg/kg, route oral; conditions: in vivo
[2] = biological target: T1, Orexin receptor type 2 (Canis lupus familiaris) (UniProt Q9TUP7); assay: Antagonist activity at dog OX2R by FLIPR assay
T1 sequence (whole entry): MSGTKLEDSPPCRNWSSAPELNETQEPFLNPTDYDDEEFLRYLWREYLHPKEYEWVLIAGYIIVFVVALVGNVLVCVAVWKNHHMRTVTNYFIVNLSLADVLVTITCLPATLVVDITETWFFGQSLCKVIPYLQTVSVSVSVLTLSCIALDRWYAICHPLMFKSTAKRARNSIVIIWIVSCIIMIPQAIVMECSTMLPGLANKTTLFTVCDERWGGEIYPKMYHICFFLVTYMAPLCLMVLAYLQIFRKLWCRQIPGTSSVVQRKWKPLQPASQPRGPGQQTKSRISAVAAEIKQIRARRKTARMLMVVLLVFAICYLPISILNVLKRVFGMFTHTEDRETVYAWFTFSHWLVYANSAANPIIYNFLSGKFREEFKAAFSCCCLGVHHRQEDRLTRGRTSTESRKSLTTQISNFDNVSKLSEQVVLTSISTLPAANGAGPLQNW

Canis familiaris = assay: Increase in slow wave sleep in dog at 3 mg/kg, po after 2 hrs; format: functional, organism-based; parameters: dose 3 mg/kg; conditions: Canis lupus familiaris
[3] = Half life in dog at 1 mg/kg, iv; format: ADME, organism-based, Canis lupus familiaris; parameters: dose 1 mg/kg, route intravenous; conditions: in vivo
[4] = Apparent permeability of the compound; format: physicochemical; conditions: not told
Mus musculus = assay: Increase in slow wave sleep in mouse at 100 mg/kg, po after 2 hrs; format: functional, organism-based; parameters: dose 100 mg/kg
[5] = Clearance in dog at 1 mg/kg, iv; format: ADME, organism-based, Canis lupus familiaris; parameters: dose 1 mg/kg, route intravenous; conditions: in vivo
[6] = Cmax in dog at 3 mg/kg, po; format: ADME, organism-based, Canis lupus familiaris; parameters: dose 3 mg/kg, route oral; conditions: in vivo
[7] = Plasma protein binding in human; format: ADME, cell-free; conditions: read-out: PPB (converted)

- Tmax [1]: 0.8 h
- INH [2]: 16 nM
- half-life [3]: 1.2 h
- Papp [4]: 33 ×10⁻⁶ cm/s
- clearance [5]: 7.2 mL/min/kg
- Cmax [6]: 2700 nM
- fraction unbound [7]: 0.04
Compound: COc1ccc(CNC(=O)c2cc(-c3cncc(C)c3)ncc2-c2nccs2)nc1OC
- Activity (Canis familiaris): Active
- Activity (Mus musculus): Active
